Results: publication PMC10869544 (Frontiers in Immunology, 2024)

Target: NEK7 (Homo sapiens, UniProt Q8TDX7)
Assay: biochemical in vitro kinase assay (Reaction Biology), 10-dose IC50, […] ATP

Sequence of NEK7 (Q8TDX7 whole entry): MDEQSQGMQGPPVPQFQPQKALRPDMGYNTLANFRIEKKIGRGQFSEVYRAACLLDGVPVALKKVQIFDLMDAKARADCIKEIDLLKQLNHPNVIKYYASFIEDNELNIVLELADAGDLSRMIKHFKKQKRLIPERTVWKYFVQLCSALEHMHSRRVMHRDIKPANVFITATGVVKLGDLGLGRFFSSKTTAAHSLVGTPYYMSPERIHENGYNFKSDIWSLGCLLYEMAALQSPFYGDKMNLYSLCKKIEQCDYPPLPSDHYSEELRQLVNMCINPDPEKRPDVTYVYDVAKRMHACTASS

CCN1CCN(c2ccc(Nc3ncc4scc(-c5cccc(C(=O)NCCN(C)C)c5)c4n3)cc2)CC1 [SLC3037, N-(2-(Dimethylamino)ethyl)-3-(2-((4-(4-ethylpiperazin-1-yl)phenyl)amino)thieno[3,2-d]pyrimidin-7-yl)benzamide]
IC50: 2.85 µM
